Experimental data: patent US20240085429A1, “ALTERING PROTEIN FUNCTION BY PHARMACOLOGICAL TARGETING OF MEMBRANE DOMAINS” (University of Virginia Patent Foundation, priority 2021, published 2024)
Counter-ions that a name gives are not always drawn.

What was measured:
[1] = tested on: GPMVs generated from HeLa cells; assay: Tmisc measurements (temperature scan of % phase separated GPMVs); design: species or system human; conditions: 1 μM C6 ceramide or 10 μM TLCK, 2 independent experiments
Protocol: GPMVs were generated from HeLa cells and either labelled with NBD-DSPE and DiI as described above (TLCK experiments) or labelled with DiI-C12 (C6-cermide experiments). They were then treated with 1 μM C6 ceramide (Sigma Aldrich) or 10 μM TLCK (Cayman) for 1-2 h, mounted in a chamber formed from two coverslips separated by a silicon spacer in the continued presence of drug or an equivalent volume of DMSO (final concentration=0.1 mol %), and allowed to settle for 1 h prior to being imaged.
Tmisc measurements for GPMVs treated with C6-ceramide were performed using a Zeiss LSM 510 confocal microscope. […] DiI-C12 fluorescence was excited using the 543 nm line of a HeNe laser and images were collected at 1× digital zoom. […] For these datasets, the number of phase separated GPMVs was scored manually. […]
Tmisc measurements for GPMVs treated with TLCK were performed using a Zeiss A880 confocal microscope. […] NBD-DSPE fluorescence was excited using a 458 Argon laser line and detected using a 458/548 dichroic and 482-614 nm band pass filter. DiD fluorescence was excited using a 633 nm HeNe laser and emission was collected using a 633/698.5 dichroic and a 638-759 nm band pass filter. […] For these datasets, the percentages of phase separated GPMVs were scored using the “colocalization” method using the MATLAB algorithm described above. […]

[2] = tested on: GPMVs isolated from HeLa cells; assay: High-throughput screen of the Cayman bioactive lipid library for effects on GPMV phase behavior (% phase separated vesicles, NBD-DSPE phase preference); design: species or system human; conditions: for Effect on % phase separated vesicles: final drug concentration 1 μM, NBD-DSPE channel; for % phase separated z-score / Pordered z-score: Table 4; for Pordered z-score: NBD-DSPE
Protocol: This approach is not practical for high throughput screening applications, which typically are performed at a single temperature. Changes in the percentage of phase-separated GPMVs were monitored at a single temperature in response to the addition of small molecules as a surrogate for measuring Tmisc directly (FIG. 1A). This approach requires that a significant fraction of GPMVs are phase separated under control conditions, such that experimentally-induced changes can be readily detected.
In phase separated vesicles these markers are enriched in their preferred domains, such that a given vesicle contains a co-existing NBD-DSPE-rich phase and a DiD-rich phase. In contrast, NBD-DSPE and DiD colocalize in a single uniform phase in GPMVs that are not phase separated. We also optimized conditions to isolate and plate GPMVs in multi-well plates.
To provide proof-of-concept, the Cayman lipid library containing ˜850 bioactive lipid-like compounds in the Vanderbilt High-throughput Screening Facility was screened, using […] of each compound across three independent screens. All screens were carried out using an automated microscope/high-content imaging system and robotic plate handler at RT. […] Compounds were initially scored based on their capacity to alter the percentage of phase separated vesicles (FIG. 2A).
HeLa cells were obtained from ATCC (cat #CCL-2) and cultured at 37° C. in 5% CO2 in a humidified tissue culture incubator. […] In brief, cells were plated in 150 mm tissue culture dishes the day before the experiment, to yield a confluence of 70-80% the day of the experiment. To generate GPMVs, cells were rinsed twice in 10 ml of GPMV buffer (2 mM DTT, 25 mM formaldehyde, 150 mM NaCl, 10 mM HEPES, 2 mM CaCl2), pH=7.4) and subsequently incubated in 12 ml of GPMV buffer at 37° C. with gentle shaking at 70 rpm for 1.5 h. The raft marker NBD-DSPE (1,2-distearoyl-sn-glycero-3-phosphoethanolamine-N-(7-nitro-2-1,3-benzoxadiazol-4-yl; Avanti Polar Lipids) and the non-raft marker DiD (1,1′-dioctadecyl-3,3,3′,3′-tetramethylindodicarbocyanine perchlorate; cat #D307 Thermo Scientific) were added from stock solutions in ethanol to the GPMV suspension at final concentrations of 5-6 μg/ml and 1 μg/ml, respectively, for the initial screenings. For some experiments, cells were prelabelled with 5 μg/ml DiD for 8 min at 4° C. and washed several times prior to GPMVs generation. Screening was performed the same day that GPMVs were generated.
[…] GPMVs suspension in GPMV buffer was then added to each well of a 96-well plate to obtain a final drug concentration of 1 μM. The GPMVs were allowed to settle to the bottom of the plates for 1.5 h prior to imaging. Samples were prepared and imaged at RT. The screen was repeated on three different days using three separately prepared batches of GPMVs (3 biological replicates).
Image acquisition was performed with an ImageXpress Micro XL automated microscope (Molecular Devices) using a Nikon 40X 0.6 NA Super Plan Fluor ELWD objective and a Lumencor Sola solid-state light source. Laser autofocus was employed at each site to obtain the best focus z-plane for each channel. […] Sixteen sites were captured per well using a 4.2 MP widefield scientific cMOS camera with a camera binning of 1. Each plate took approximately 1.3 h to image. Multiple plates were loaded to a plate carousel (ThermoScientific), shuttled to/from the ImageXpress via a ThermoScientific CRS F3 robot arm, and automatically run through the Momentum scheduling software (Thermo). To analyze the data, images and metadata were exported as TIFF files and subjected to image analysis using a custom MATLAB-based program as described below.

SMILES	change in Tmisc relative to DMSO [1]	Effect on % phase separated vesicles ([2]; HeLa GPMVs, RT)	% phase separated z-score ([2]; HeLa GPMVs, final 1 μM, RT)	Pordered z-score ([2]; HeLa GPMVs, final 1 μM, RT)	Effect on Pang(ϕ) ([2]; NBD-DSPE raft phase preference, HeLa GPMVs, final 1 μM, RT)	raft modulation in the GPMV model ([2]; screen result in words)
CCCCCCCCCCCCC/C=C/[C@@H](O)[C@H](CO)NC(=O)CCCCC [C6 Ceramide (d18:1/6:0)]	lowered Tmisc	↓	−3.01	0.76		
Cc1ccc(S(=O)(=O)N[C@@H](CCCCN)C(=O)CCl)cc1 [TLCK hydrochloride, Nα-Tosyl-Lys Chloromethyl Ketone]	increased Tmisc	↑	6.73	5.69	↑	potent raft stabilizer
